Values quoted from earlier work, collected in patent US20130331402A1, “DOSING REGIMEN ASSOCIATED WITH LONG-ACTING INJECTABLE PALIPERIDONE ESTERS” (Janssen Pharmaceutica NV, priority 2009, published 2013).

Conditions: depot intramuscular antipsychotics

SMILES | t1/2 (apparent terminal half-life after multiple dosing) [h]
CCCCCCCCCC(=O)OCCN1CCN(CC/C=C2\c3ccccc3Sc3ccc(Cl)cc32)CC1 [Clopenthixol decanoate] | 456
CCCCCCCCCC(=O)OCCN1CCN(CC/C=C2\c3ccccc3Sc3ccc(C(F)(F)F)cc32)CC1 [Flupenthixol decanoate] | 408
CCCCCCCCCC(=O)OCCN1CCN(CCCN2c3ccccc3Sc3ccc(C(F)(F)F)cc32)CC1 [Fluphenazine decanoate] | 336
CCCCCCC(=O)OCCN1CCN(CCCN2c3ccccc3Sc3ccc(C(F)(F)F)cc32)CC1 [Fluphenazine enanthate] | 96
O=C1NCN(c2ccccc2)C12CCN(CCCC(c1ccc(F)cc1)c1ccc(F)cc1)CC2 [Fluspirilene] | 170
CCCCCCCCCC(=O)OC1(c2ccc(Cl)cc2)CCN(CCCC(=O)c2ccc(F)cc2)CC1 [Haloperidol decanoate] | 504
Cc1cc2c(s1)Nc1ccccc1N=C2N1CCN(C)CC1.O.O=C(O)c1cc2ccccc2c(Cc2c(O)c(C(=O)O)cc3ccccc23)c1O [Olanzapine pamoate] | 720

More lines, now with the values ahead:

t1/2 (apparent terminal half-life after multiple dosing) [h] | SMILES
96 to 140 | CCCCCCC(=O)OCCN1CCN(CCCN2c3ccccc3Sc3ccc(Cl)cc32)CC1 [Perphenazine enanthate]
360 to 384 | CCCCCCCCCCCCCCCC(=O)OCCC1CCN(CCCN2c3ccccc3Sc3ccc(S(=O)(=O)N(C)C)cc32)CC1 [Pipothiazine palmitate]
456 | CCCCCCCCCC(=O)OCCN1CCN(CC/C=C2/c3ccccc3Sc3ccc(Cl)cc32)CC1 [Zuclopenthixol decanoate]

Conditions: background statement

water solubility | SMILES
extreme low water solubility | CCCCCCCCCCCCCCCC(=O)OC1CCCn2c1nc(C)c(CCN1CCC(c3noc4cc(F)ccc34)CC1)c2=O (racemic) [paliperidone palmitate, (±)-3-[2-[4-(6-fluoro-1,2-benzisoxazol-3-yl)-1-piperidinyl]ethyl]-6,7,8,9-tetrahydro-2-methyl-4-oxo-4H-pyrido[1,2-c]pyrimidin-9-yl hexadecanoate]

Conditions: oral atypical antipsychotics, Table 2

SMILES | Terminal Half-life [h]
CCN1CCCC1CNC(=O)c1cc(S(=O)(=O)CC)c(N)cc1OC (stereo not drawn) [Amisulpride] | 12
O=C1CCc2ccc(OCCCCN3CCN(c4cccc(Cl)c4Cl)CC3)cc2N1 [Aripiprazole] | 47 to 68
CN1CCN(C2=Nc3cc(Cl)ccc3Nc3ccccc32)CC1 [Clozapine] | 9 to 17

The next lines start with the values.

Terminal Half-life [h] | SMILES
25 | Cc1nc2n(c(=O)c1CCN1CCC(c3noc4cc(F)ccc34)CC1)CCCC2O (stereo not drawn) [Paliperidone (9-hydroxy-risperidone), Paliperidone]
6 | OCCOCCN1CCN(C2=Nc3ccccc3Sc3ccccc32)CC1 [Quetiapine]
70 | O=C1NCCN1CCN1CCC(c2cn(-c3ccc(F)cc3)c3ccc(Cl)cc23)CC1 [Sertindole]
8 to 10 | O=C1Cc2cc(CCN3CCN(c4nsc5ccccc45)CC3)c(Cl)cc2N1 [Ziprasidone]

Same assay, conditions: oral typical antipsychotics, Table 1

SMILES | Terminal Half-life [h]
CN(C)CCCN1c2ccccc2Sc2ccc(Cl)cc21 [Chlorpromazine] | 8 to 35
OCCN1CCN(CC/C=C2/c3ccccc3Sc3ccc(C(F)(F)F)cc32)CC1 [Flupenthixol] | 22 to 36
OCCN1CCN(CCCN2c3ccccc3Sc3ccc(C(F)(F)F)cc32)CC1 [Fluphenazine] | 14 to 24
O=C(CCCN1CCC(O)(c2ccc(Cl)cc2)CC1)c1ccc(F)cc1 [Haloperidol] | 12 to 36
CN1CCN(C2=Nc3ccccc3Oc3ccc(Cl)cc32)CC1 [Loxapine] | 4
CCc1c(C)[nH]c2c1C(=O)C(CN1CCOCC1)CC2 (stereo not drawn) [Molindone] | 1.5

Continued, values first:

Terminal Half-life [h] | SMILES
8 to 21 | OCCN1CCN(CCCN2c3ccccc3Sc3ccc(Cl)cc32)CC1 [Perphenazine]
48 to 72 | O=c1[nH]c2ccccc2n1C1CCN(CCCC(c2ccc(F)cc2)c2ccc(F)cc2)CC1 [Pimozide]
4 to 8 | CN1CCN(CCCN2c3ccccc3Sc3ccc(Cl)cc32)CC1 [Prochlorperazine]
9 to 30 | CSc1ccc2c(c1)N(CCC1CCCCN1C)c1ccccc1S2 (stereo not drawn) [Thioridazine]
34 | CN1CCN(CC/C=C2/c3ccccc3Sc3ccc(S(=O)(=O)N(C)C)cc32)CC1 [Thiothixene]
10 to 20 | CN1CCN(CCCN2c3ccccc3Sc3ccc(C(F)(F)F)cc32)CC1 [Trifluoperazine]
